Reference: patent publication US20060223884A1, “Compounds and compositions for use in the prevention and treatment of obesity and related syndromes” (priority 2005, published 2006)
Where a name gives a salt, the structure may show the parent alone.

What was measured:
[1] = Body weight gain in C57BU6 mice shifted to a high fat diet, analogs and isomers, 3 days (Example 9); type: in vivo; details: 100 mg/kg twice daily oral gavage; for body weight gain induced by the high fat diet: C57BU6 mice on high fat diet
Description: C57BU6 mice were received at 6-7 weeks of age and fed a standard commercial chow for 1 week (acclimation period). The animals were randomized based on their body weight values, into control and treatment groups (n=6). Then, animals were shifted to a high fat diet (60% of calories from fat) and treated twice daily by oral gavage with 4-hydroxyisoleucine (4-OH, compound 14a) or different analogs and isomers of 4-OH at the dose of 100 mg per kg of body weight for 3 days. The control group (Control HFD) received vehicle (water) alone and a group was kept under standard chow (Control Lean). Body weight of the mice was recorded daily. Two different experiments were run and the effect on body weight gain of selected analogs and isomers according to the invention is presented in FIG. 22A (Experiment 1) and FIG. 22B (Experiment 2).

[2] = Body weight gain and epididymal fat pad in the DIO mouse model, Compound 13e (Example 8); type: in vivo, C57BU6 mice; details: 25 or 50 mg/kg twice daily oral gavage, 21 days
Description: The objective of this study was to determine the effect of one analog according to the invention, namely Compound 13e, on body weight gain in the Diet-Induced Obesity (DIO) mouse model.
C57BU6 mice were received at 7-8 weeks of age and fed a high fat diet (60% of calories from fat) for 8 weeks. Fasted glycemia and body weight values were used to randomize the mice into control and treatment groups (n=8). The average basal glycemia was between 213 and 215 mg/dL for all groups. The animals were treated twice daily by oral gavage with Compound 13e (25 or 50 mg per kg of body weight), and the control group received vehicle (200 mM bicarbonate buffer/0.1% Tween-20™, pH =9) alone. The animals were treated for 21 days. Body weight of the mice was measured on a frequent basis during the treatment. At the end of the study, the epididymal fat pads were isolated and weighed. Data are expressed as mean±SEM of body weight and mean±SEM of fat pad weight.

[3] = Body weight of DIO mice, 4-hydroxyisoleucine and Rimonabant alone and in combination (Example 7); type: in vivo, C57BU6 mice; details: oral
Description: C57BU6 mice were received at 7-8 weeks of age and fed a high fat diet (60% of calories from fat) for 8 weeks. Seven days prior to treatment, animals were randomized based on their body weight and fasted glycemia values into control and treated groups (n=8). The animals were treated by oral gavage twice daily with 4-OH (50 mg/kg of body weight; group 2), once daily in the afternoon with Rimonabant (0.1 mg/kg; group 3), and a combination of the two treatments (4-OH 50 mg/kg twice daily +Rimonabant 0.1 mg/kg once daily; group 4). The control group (group 1) received vehicle alone twice daily. After 3 weeks of treatment (day 22), the doses were increased as follows: 4-OH 100 mg/kg twice daily (group 2), Rimonabant 1 mg/kg once daily (group 3), and the combination (4-OH 100 mg/kg twice daily+Rimonabant 1 mg/kg once daily; group 4). The animals were treated for 1 week with these higher doses. Body weight of the mice was recorded every day for all groups from Day 6 to Day 28.

[4] = Body weight of DIO mice, 4-hydroxyisoleucine and metformin alone and in combination (Example 6); type: in vivo, C57BU6 mice; details: DIO mice, 21 days
Description: C57BU6 mice were received at 7-8 weeks of age and fed a high fat diet (60% of calories from fat) for 8 weeks. Fasted glycemia was checked and animals with readings between 200 and 220 mg/dL were included in the study. The animals were randomized based on their body weights and glycemia values into control and treatment groups (n=8). […] The control group received vehicle (water) alone. The animals were treated for 21 days. Body weight of the mice was measured on the first day of treatment and on days 3, 7, 10, 14, 17, and 21. All data are expressed as mean±SEM.

[5] = cited from earlier work
[6] = Weight gain and epididymal fat of DIO-C57Bl/6 mice, 4-hydroxyisoleucine and Exendin-4 alone or in combination (Example 5); type: in vivo, C57BI/6 mice; details: s.c., 21 days
Description: (§1) Glycemic response was monitored by an Oral Glucose Tolerance Test (OGTT) performed on days 0, 7, 14, and 21 of treatment.
(§2) A total of 56 animals were used in the study. The animals were distributed into 7 groups (5 treated, 1 normal diet control, and 1 high fat diet control group). Each group was composed of 8 animals. […] For the three weeks of treatment, the test agents were dissolved in sterile saline for injection (USP). 4-Hydroxyisoleucine was kept at 4° C. (administration to groups 3, 4, and 7) while a frozen aliquot of Exendin-4 was thawed each dosing day for administration to groups 5, 6, and 7. Control animals received sterile saline, twice daily (groups 1 and 2). […] Animals from groups 5 and 6 received sterile saline as the AM treatment, while the PM treatment consisted of 0.05 and 0.01 mg/kg of Exendin-4, respectively. For Group 7, the AM treatment consisted of 50 mg/kg 4-OH only, while the PM treatment consisted of 0.01 mg/kg of Exendin-4+50 mg/kg of 4-OH. All groups were treated by subcutaneous injection.

[7] = Oral Glucose Tolerance Test (OGTT) in DIO mice, 4-hydroxyisoleucine and Exendin-4 alone or in combination (Example 5); type: in vivo, C57BI/6 mice; details: single agent, 4-OH 50 mg/kg or Exendin-4 0.01 mg/kg, after 7, 14 and 21 days of treatment
Description: as §1, §2
On days 0, 7, 14, and 21, animals fasted for approximately 5 hours were challenged with an Oral Glucose Tolerance Test (OGTT) at 5 hours post-AM test agent administration. Whole blood glucose levels were monitored using a hand-held glucometer prior to OGTT and for up to 2 hours post-glucose challenge.

Molecule: C[C@H]([C@@H](C)O)[C@@H](N)C(=O)O [compound 14aa, (2R,3S,4R)-4-Hydroxyisoleucine]
- body weight gain induced by the high fat diet [1]: reduced body weight gain induced by the high fat diet

Molecule: N[C@H](C(=O)O)[C@@H]1CCCC[C@H]1O [Compound 13e, (S)-2-amino-2-((1S,2R)-2-hydroxycyclohexyl)acetic acid]
- body weight gain compared to vehicle treated mice [2]: reduction in body weight gain
- dose dependence of the effect on body weight gain ([2]; DIO mice): dose-dependent
- epididymal fat pad weight ([2]; DIO mice, grams per 10 grams of body weight): reduction of epididymal fat pad weight

Molecule: CC(=O)N[C@@H]1C(=O)O[C@@H](C)[C@@H]1C [compound 104]
- body weight gain induced by the high fat diet [1]: reduced body weight gain induced by the high fat diet

Molecule: COC(=O)[C@@H]1C[C@H](O)CN1 [compound 76, cis-4-hydroxyproline methyl ester HCl salt]
- body weight gain induced by the high fat diet [1]: reduced body weight gain induced by the high fat diet

Molecule: Cc1c(C(=O)NN2CCCCC2)nn(-c2ccc(Cl)cc2Cl)c1-c1ccc(Cl)cc1 [Rimonabant, 5-(4-Chlorophenyl)-1-(2,4-dichlorophenyl)-4-methyl-N-(piperidin-1-yl)-1H-pyrazole-3-carboxamide, reference compound]
- body weight gain after 21 days (low dosage treatment) ([3]; 4-OH 50 mg/kg twice daily, Rimonabant 0.1 mg/kg once daily, alone or in combination): slight reduction of body weight gain
- body weight after dose increase (day 22 to 28) ([3]; 4-OH 100 mg/kg twice daily, Rimonabant 1 mg/kg once daily, alone or in combination (combination compared to each compound separately)): immediately reduced the body weight

Molecule: CC1(O)CC(C(=O)O)NCC1O (centres unmarked) [compound 65a, 4-methyl-4,5-dihydroxypipecolic acid]
- efficacy on body weight gain relative to compound #14a [1]: greater efficacy than the SRS isomer of 4-OH
- body weight gain induced by the high fat diet [1]: reduced body weight gain induced by the high fat diet

Molecule: CN(C)C(=N)N=C(N)N [metformin]
- body weight as compared to vehicle-treated mice ([4]; 100 mg/kg twice daily oral, only 4-OH significant (p<0.01 4-OH, p=0.27 metformin)): reduction of their body weight
- body weight compared to control DIO mice, given alone ([4]; 4-OH 50 mg/kg or metformin 25 mg/kg twice daily oral): no significant effect on body weight
- blood glucose levels ([5]; by increasing insulin sensitivity (Stumvoll et al. 1995)): lowers blood glucose levels
- body weight ([5]; most studies conducted in patients with type 2 diabetes (Hundal et al. 2003)): reduce body weight
- weight ([5]; obese individuals without diabetes (Glueck et al. 2001)): induced weight loss

Molecule: O=C(O)[C@@H]1C[C@H](O)CN1 [compound 75, cis-4-hydroxyproline]
- body weight gain induced by the high fat diet [1]: reduced body weight gain induced by the high fat diet

Molecule: Exendin-4: glucagon-like peptide 1 (GLP-1) receptor agonist
- body weight gain ([6]; 4-OH 50 mg/kg twice daily, Exendin-4 0.01 mg/kg (PM), alone or in combination): decrease in body weight gain
- weight of epididymal fat ([6]; 4-OH 100 mg/kg, Exendin-4 0.01 mg/kg, combination 4-OH 50 mg/kg + Exendin-4 0.01 mg/kg): not effective
- weight of epididymal fat ([6]; Exendin-4 0.05 mg/kg): effective
- glycemic levels following OGTT challenge [7]: effective

Molecule: COC(=O)[C@H]1C[C@@H](O)CN1 [compound 202]
- body weight gain induced by the high fat diet [1]: reduced body weight gain induced by the high fat diet

Molecule: CC(C)(C)C(O)CC(N)C(=O)O (centres unmarked) [compound 62, 2-amino-4-hydroxy-5,5-dimethyl-hexanoic acid]
- efficacy on body weight gain relative to compound #14a [1]: greater efficacy than the SRS isomer of 4-OH
- body weight gain induced by the high fat diet [1]: reduced body weight gain induced by the high fat diet
